Results taken from PubChem BioAssay (NCI).
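Cultured in 96-well plates, cells were exposed to test compound for 48 hours across five concentrations. TGI marks complete inhibition of growth.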 *1 amine or outer side, *2 acyl side, *3 side chain or, on linkers, in order; H or OH if unused. Where a SMILES comes first, the peptide text is derived from it. The star is where a group is joined. γGlu = O=C(O)[CH](CCC(=O)[*:2])N[*:1]; Cbz = O=C(OCc1ccccc1)*; NHOH = ON*

Columns and labels:
Experiment in all cases: DTP human tumour cell line panel, 48 h
ACHN renal = system: ACHN renal
CAKI-1 renal = system: CAKI-1 renal
HOP-92 NSCLC = system: HOP-92 NSCLC
HS 578T breast = system: HS 578T breast
IGROV1 ovarian = system: IGROV1 ovarian
KM12 colon = system: KM12 colon
MCF7 breast = system: MCF7 breast
OVCAR-3 ovarian = system: OVCAR-3 ovarian
SF-268 CNS = system: SF-268 CNS
SR leukemia = system: SR leukemia

Measured: TGI

CCOC(=O)CCCN
not listed: SR leukemia
> 100 µM: all other assays above

COc1cc(O)c2c(=O)c3cccc(C)c3[nH]c2c1
not listed: HOP-92 NSCLC | SR leukemia
> 10 µM: all other assays above

CC(C)(C)c1ccc(O)c(C(O)c2ccccn2)c1 (configuration not stated)
not listed: HOP-92 NSCLC | IGROV1 ovarian
> 100 µM: all other assays above

O=S(=O)(O)c1cc(O)c(N=NC2S(=O)(=O)OCCOS2(=O)=O)c2ccccc12
not listed: SR leukemia
> 100 µM: all other assays above

Cc1c2ccccc2c(/C=N/NC(=O)CSCC(=O)N/N=C/c2c3ccccc3c(C)c3ccccc23)c2ccccc12
> 89 µM: ACHN renal
38.6 µM: HOP-92 NSCLC
> 80.9 µM: OVCAR-3 ovarian
> 78.7 µM: MCF7 breast
> 75.3 µM: SF-268 CNS
not listed: SR leukemia
> 100 µM: all other assays above

NC(CCC(=O)NC(CCC(=O)NO)C(=O)NCC(=O)O)C(=O)O (configuration not stated) (γGlu-Glu(NHOH)-Gly-OH; configuration not given here)
not listed: HS 578T breast | SR leukemia
> 100 µM: all other assays above

CN(C)c1ccc(-c2c(C#N)c(-c3ccccc3)n(NS(=O)(=O)c3ccccc3)c(=O)c2C#N)cc1
not listed: OVCAR-3 ovarian | SR leukemia
> 100 µM: all other assays above

CC1=NN(c2ccccc2)C(=O)/C1=C1\SC(c2ccccc2)(c2ccccc2)c2ccccc21
not listed: SR leukemia
> 100 µM: all other assays above

O=C1c2cccnc2S(=O)(=O)N1c1ccc(Br)cc1
not listed: ACHN renal | MCF7 breast
> 100 µM: all other assays above

CN(C(=O)Cc1cc(Cl)c(Cl)cc1NC(=O)CCCN)[C@H]1CCCC[C@@H]1N1CCCC1
36.7 µM: KM12 colon
44.2 µM: MCF7 breast
30.6 µM: SF-268 CNS
not listed: HOP-92 NSCLC | HS 578T breast
> 100 µM: all other assays above

NC(=O)N/N=C(\Cc1cc(=O)oc2cc(O)ccc12)C(=O)Nc1ccccc1C(N)=O
not listed: SR leukemia
> 100 µM: all other assays above

O=C(Nc1ccc(Cl)cc1)c1cc(S(=O)(=O)Nc2nc3ncccc3[nH]2)c(SSc2cc(Cl)c(C(=O)Nc3ccc(Cl)cc3)cc2S(=O)(=O)Nc2nc3ncccc3[nH]2)cc1Cl
not listed: SR leukemia
> 100 µM: all other assays above

CN(C)CCNc1c(O)c2c(c(O)c1Cl)C(=O)C=CC2=O
7.56 µM: HS 578T breast
35.2 µM: SF-268 CNS
3 µM: IGROV1 ovarian
9.76 µM: ACHN renal
3.39 µM: KM12 colon
3.61 µM: OVCAR-3 ovarian
4.25 µM: HOP-92 NSCLC

CC(Nc1cccc(Cl)c1)c1ccncc1 (configuration not stated)
not listed: SR leukemia
> 100 µM: all other assays above

c1ccc(C/C(=N\Nc2nc3ccccc3[nH]2)c2ccccn2)cc1
0.327 µM: IGROV1 ovarian
20 µM: HS 578T breast
12 µM: SF-268 CNS
3.06 µM: ACHN renal
0.653 µM: HOP-92 NSCLC
0.607 µM: MCF7 breast
1.52 µM: CAKI-1 renal
15.4 µM: KM12 colon

CCOC(=O)CCC(NC(=O)C(CC(=O)OC)NC(=O)OCc1ccccc1)C(=O)NC(CC(=O)OC)C(=O)NC(CCC(=O)OCC)C(=O)NC(CC(=O)OC)C(=O)NC(CCC(=O)OCC)C(=O)NC(CC(=O)OCC)C(=O)OCC (configuration not stated) (Cbz-D(OMe)E(OEt)D(OMe)E(OEt)D(OMe)E(OEt)D(OEt)-OEt; configuration not given here)
> 100 µM: ACHN renal | IGROV1 ovarian | MCF7 breast | OVCAR-3 ovarian | SR leukemia

CN(C)CC1CCC/C(=C\c2ccc(Cl)c(Cl)c2)C1=O (configuration not stated)
4.04 µM: KM12 colon
15.1 µM: ACHN renal
12.1 µM: IGROV1 ovarian
13.4 µM: HOP-92 NSCLC | OVCAR-3 ovarian
9.51 µM: HS 578T breast
7.7 µM: CAKI-1 renal
5.44 µM: MCF7 breast
8.88 µM: SF-268 CNS

O=[N+]([O-])C(/C(Cl)=C(/Cl)N1CCOCC1)=C1\Nc2ccccc2O1
not listed: HOP-92 NSCLC | IGROV1 ovarian | SR leukemia
> 100 µM: all other assays above

COC(=O)C12CCCN1CCC2
not listed: HOP-92 NSCLC | HS 578T breast | IGROV1 ovarian
> 100 µM: all other assays above

CCCCCCCCCCCCCOCCOCCOCCCCC(O)CCCCCCCCCC1=C[C@H](C)OC1=O (some centres not stated)
44.2 µM: OVCAR-3 ovarian
> 100 µM: ACHN renal | KM12 colon | MCF7 breast
82.2 µM: SF-268 CNS
47.6 µM: HS 578T breast
34.2 µM: SR leukemia
44.4 µM: CAKI-1 renal
37.6 µM: IGROV1 ovarian

OC1CCN2Cc3ccccc3N=C12 (configuration not stated)
not listed: IGROV1 ovarian | SR leukemia
> 100 µM: all other assays above

CCN(CC)c1c(-c2c(OC(C)C)c(=O)c2=O)c(=O)n2ccsc2c1OC(C)=O
not listed: MCF7 breast
> 100 µM: all other assays above

O=c1[nH]c2c(C(F)(F)F)c(Cl)c(-c3ccccc3)nc2o1
75.7 µM: HOP-92 NSCLC
65.8 µM: OVCAR-3 ovarian
not listed: SR leukemia
> 100 µM: all other assays above

CC1=C[C@H](C[C@]2(C)c3c(c4c(C)cccc4oc3=O)O[C@@H]2C)OC1=O
61.3 µM: SR leukemia
63.4 µM: SF-268 CNS
not listed: HOP-92 NSCLC
> 100 µM: all other assays above

COC(=O)C12C(=O)CC3CCC1C32C(=O)OC (configuration not stated)
not listed: HOP-92 NSCLC | HS 578T breast
> 100 µM: all other assays above

CCN(CC)P(=O)(c1ccc2c(c1)OCCOCCOCCOCCO2)N(CC)CC
not listed: HOP-92 NSCLC | OVCAR-3 ovarian
> 100 µM: all other assays above

C/C(=N/NC(=S)N1CCCCCC1)c1cccc(/C(C)=N\NC(=S)N2CCCCCC2)n1
8.82 µM: HS 578T breast
2.87 µM: ACHN renal
3.58 µM: HOP-92 NSCLC
2.86 µM: IGROV1 ovarian
3.16 µM: KM12 colon
5.84 µM: SR leukemia
2.59 µM: OVCAR-3 ovarian
9.46 µM: SF-268 CNS
3.46 µM: MCF7 breast

COc1cc(/C=C2\CC3C4CC=C5C[C@@H](O)CC[C@]5(C)C4CC[C@]3(C)\C2=N\O)cc(OC)c1OC (some centres not stated)
61.4 µM: OVCAR-3 ovarian
15 µM: MCF7 breast
17.6 µM: ACHN renal
37.7 µM: CAKI-1 renal
23.5 µM: KM12 colon
not listed: SR leukemia
> 100 µM: all other assays above

O=C1CC(Nc2ccccc2)c2c(Cl)sc(Cl)c21 (configuration not stated)
5.21 µM: MCF7 breast
3.44 µM: IGROV1 ovarian
> 100 µM: HS 578T breast
1.36 µM: CAKI-1 renal
1.94 µM: KM12 colon
3.13 µM: HOP-92 NSCLC
2.41 µM: ACHN renal

CC1(N2CCOCC2)CC2C(=[N+]1[O-])CCC/C2=N/O (configuration not stated)
not listed: HOP-92 NSCLC
> 100 µM: all other assays above

Cc1cc(C)c2c(-c3ccccc3)cc(=O)[nH]c2c1
not listed: CAKI-1 renal | HOP-92 NSCLC | SR leukemia
> 100 µM: all other assays above

CN(C)N1C(=C(C#N)C#N)C(c2ccccc2)CC1C#N (configuration not stated)
not listed: OVCAR-3 ovarian | SR leukemia
> 100 µM: all other assays above

CC(=O)Oc1ccc2c(c1)O/C(=C\c1ccc(N(C)C)cc1)C2=O
60.8 µM: HS 578T breast
not listed: HOP-92 NSCLC | OVCAR-3 ovarian
> 100 µM: all other assays above

CSC(=Nc1ccccc1)c1c(C)[nH]n(-c2ccccc2)c1=O
not listed: ACHN renal | HOP-92 NSCLC | IGROV1 ovarian
> 100 µM: all other assays above

OC1C2CN3CCN(C2)CC1(c1ccccc1)C3 (configuration not stated)
not listed: HOP-92 NSCLC
> 100 µM: all other assays above
